This note sets out measurements from PMC11581978, “Paenilamicins are context-specific translocation inhibitors of protein synthesis” (Nature Chemical Biology, 2024).

Entries after “also recorded” stand apart in the source; their conditions may differ.

Assay [1] deals with E. coli ribosomes translating MLIFstop-mRNA. In words: Toeprinting assay on MLIFstop-mRNA. In kind it is biochemical. The settings on record: 0.5-100 µM, toeprinting in duplicate, 30 min at 37 °C. An excerpt:
To investigate how paenilamicins inhibit translation, we generated PamB2-stalled ribosome complexes (PamB2-SRC) for single-particle cryo-EM analysis. Rather than forming complexes on vacant ribosomes, or with predefined functional states, we instead aimed to use more physiological complexes where translating ribosomes become stalled by PamB2. To achieve this, we performed in vitro translation reactions with E. coli ribosomes using the Met-Leu-Ile-Phe-stop-mRNA (MLIFstop-mRNA), a model template that we had previously used to successfully determine structures of drosocin-stalled ribosomal complexes. Toeprinting was used to monitor the position of ribosomes on the MLIFstop-mRNA in the presence of increasing concentrations of synthetic PamB2 (Extended Data Fig. 2). […] (Extended Data Fig. 2). […] (Extended Data Fig. 2).
Toeprinting reactions for Fig. 4b and Extended Data Fig. 2 were performed as described previously. Briefly, reactions were performed with 6 μl of PURExpress in vitro protein synthesis system (New England Biolabs). The reactions were carried out with different primers and templates (Supplementary Tables 2 and 3). The reactions contained 340 ng of the respective mRNA template and were supplemented with the different compounds as specified. The translation reactions were incubated for 30 min at 37 °C. […]

Another assay concerns E. coli 70S ribosome. Briefly: Cryo-EM of PamB2-stalled ribosome complexes. In kind it is binding. The settings on record: 50 µM. Here is the method: PamB2-ribosome complexes were generated by in vitro transcription–translation reactions in PURExpress in vitro protein synthesis system (New England Biolabs) with the same reaction mix as described earlier in the toeprinting assays. Complex formation reactions were carried out on MLIFstop toeprint DNA template in a 48 µl of reaction in presence of 50 µM PamB2. The reaction was incubated for 15 min at 37 °C. The reaction volume was then split: 42 µl were used for complex generation and 6 µl were used for toeprinting analysis. Ribosome complexes were isolated by centrifugation in 900 µl of sucrose gradient buffer (containing 40% sucrose, 50 mM HEPES-KOH, pH 7.4, 100 mM KOAc, 25 mM Mg(OAc)2 and 6 mM 2-mercaptoethanol) for 3 h at 4 °C with 80,000g in a Optima Max-XP Tabletop Ultracentrifuge with a TLA 120.2 rotor. The pelleted complex was resuspended in Hico buffer (50 mM HEPES-KOH, pH 7.4, 100 mM KOAc, 25 mM Mg(OAc)2) supplemented with 50 µM PamB2, then incubated for 15 min at 37 °C.
Sample volumes of 3.5 μl (eight at an optical density of 260 nm per milliliter) were applied to grids (Quantifoil, Cu, 300 mesh, R3/3 with 3-nm carbon) that had been freshly glow-discharged using a GloQube (Quorum Technologies) in negative charge mode at 25 mA for 90 s. Sample vitrification was performed using an ethane-propane mixture (37:63) in a Vitrobot Mark IV (Thermo Fisher Scientific), the chamber was set to 4 °C and 100% relative humidity and blotting was done for 3 s with no drain or wait time. Frozen cryo-EM grids were imaged on a TFS 300 kV Titan Krios at the Dubochet Center for Imaging EPFL (Lausanne, Switzerland). Images were collected on Falcon IV direct detection camera in counting mode using the EPU and AFIS data collection scheme with a magnification of ×96,000 and a total dose of 60 electrons per square angstrom (e^−/Å^2) for each exposure, and defocus ranging from −0.4 to −0.9 μm. In total, 7,638 videos were produced in EER format at a pixel size of 0.8 Å per pixel.
RELION v.4.0.1 (ref. [46]) was used for processing, unless otherwise specified. For motion correction, RELION’s implementation of MotionCor2 with 4×4 patches and for initial contrast transfer function (CTF) estimation CTFFIND v.4.1.14 (ref. [47]) was used. From 7,638 micrographs, 611,189 particles were picked using crYOLO v.1.8.04b47 with a general model. Then 562,816 ribosome-like particles were selected after two-dimensional classification and extracted at three times decimated pixel size (2.4 Å per pixel) (Supplementary Fig. 1b,c). An initial three-dimensional (3D) refinement was done using a E. coli 70S reference map (EMD-12573)[30]. […]

As for paenilamicin B2 [PamB2], in assay [1], the “ribosome stalling on MLIFstop-mRNA” value is “gradual loss of ribosomes at the AUG codon and an increase in ribosomes stalled one codon further with the UUG (Leu) codon in the P-site”. Moreover, in the assay on E. coli 70S ribosome (A- and P-site tRNAs (nonrotated) or A/P- and P/E-hybrid tRNAs (rotated), 2.2-2.3 Å), the “binding to elongating ribosomes (density)” value is “additional density located between the A- and P-site tRNAs that could be unambiguously assigned to PamB2; also recorded: binds stably to the small subunit of elongating ribosomes containing A- and P-site transfer RNAs (tRNAs)”. In addition, the “binding to initiating ribosomes (density)” value in the assay with E. coli 70S ribosome (P-site tRNA only, 2.4 Å) is recorded as “No density for PamB2 was evident; also recorded: not to initiating ribosomes bearing only a P-site tRNA”. In the assay on E. coli 70S ribosome (additional density on CCA-end of A-site and A/P-tRNA), the “peptide bond formation in PamB2-bound elongation complexes” value is on record as “peptide bond formation has already occurred”. Further, the “binding site on the ribosome” value in the assay with E. coli 70S ribosome (cryo-EM) was “located predominantly on the 30S subunit of the 70S ribosome, where it inserts into the cleft between the A- and P-site tRNAs”.
